Results: US20200123127A1, “REMOVAL OF SENESCENCE-ASSOCIATED MACROPHAGES” (EVERON BIOSCIENCES, INC., priority 2016, published 2020)
Read-outs that look alike come from different tables or passages of the source.

Assays:
[1] = system: RWPE-1 normal prostate epithelial cells; test: dnPTEN-induced senescence model in RWPE-1 cells (SA-beta-Gal and methylene blue staining); type: cell-based; conditions: 10 uM for 72 hours
Procedure: FIG. 3. Activity of A1.1 and analog A1.12 in a model of dnPTEN-induced senescence in RWPE-1 normal prostate epithelial cells. A population of transduced RWPE-1 cells containing doxycycline-inducible dnPTEN was senesced via 1 ug/ml doxycycline for 7 days. Cells which bypass senescence continued to proliferate to form a confluent monolayer. The mixed population of senescent and proliferating cells was treated with A1.1 and A1.12 at 10 uM for 72 hours. SA-beta-Gal staining was used to monitor the amount of senescent cells of treatment groups compared to non-treated control. In addition, methylene blue was used to quantitate overall cell mass, which was comprised mostly of the non-senescent, proliferating cells. Treatment with the anti-senescent compounds led to a substantial decrease in SA-beta-Gal staining, while the amount of methylene blue staining was less affected.
Senescent cells are strongly associated with benign prostate hyperplasia (BPH) and the development of prostate cancer [Vital, P. et al. (2014) The Senescence-Associated Secretory Phenotype Promotes Benign Prostatic Hyperplasia. Am J Pathol, 184(3): 721-731; Burton, D. et al. (2013). Androgen Deprivation-Induced Senescence Promoted Outgrowth of Anderogen-Refractory Protstate Cancer Cells. PLOS One, 8(6):e68003]. […] We sought to evaluate the efficacy of our compounds in a model of RWPE-1 normal prostate epithelial cells transduced with a construct for inducible loss of PTEN function [doxycycline-inducible expression of a dominant-negative PTEN (dnPTEN) mutant]. In the presence of doxycycline, a fraction of the population of transduced cells became senescent, while cells bypassing senescence continued to grow until a confluent monolayer was formed.

[2] = system: human neonatal dermal fibroblasts (NDF); test: Resazurin viability assay, senescent vs proliferating/quiescent human neonatal dermal fibroblasts; type: cell-based; conditions: Homo sapiens, Fibroblast, 72 h, 72 hour exposure, resazurin
Procedure: FIG. 2. Compound A1.1 selectively kills senescent human neonatal dermal fibroblasts (NDF) cells in a dose- and time-dependent manner. (FIG. 2A) Normal proliferating and quiescent NDF cells, and the cells made senescent via exposure to genotoxic agents (doxorubicin, bleomycin and gamma-irradiation) were incubated with increasing concentrations of A1.1. At 72 hours post-treatment cell viability was measured via resazurin viability assay. (FIG. 2B) Compound A1.1 selectively kills senescent NDF cells in time-dependent manner discriminating between acute genotoxic stress and senescence. Acutely damaged NDF cells were irradiated with 4 Gy gamma-irradiation 24 hours before A1.1 treatment. Senescent NDF cells were treated with bleomycin or irradiated with 15 Gy and incubated for 14 days to induce senescence before treatment with A1.1. Proliferating acutely damaged and senescent NDF cell were treated with 1.875-30 μM A1.1 and viable cells were measured at 72 hours after treatment. Average and standard deviation are shown.
Normal proliferating and quiescent NDF cells, and the cells made senescent via exposure to genotoxic agents (doxorubicin, bleomycin and gamma-irradiation) were incubated with increasing concentrations of A1.1. At 72 hours post-treatment cell viability was measured via resazurin viability assay.
A1.1 selectively kills senescent human neonatal dermal fibroblasts (NDF) cells in time-dependent manner discriminating between acute genotoxic stress and senescence ([…]). Acutely damaged NDF cells were irradiated with 4 Gy gamma-irradiation 24 hours before A1.1 treatment. Senescent NDF cells were treated with bleomycin or irradiated with 15 Gy and incubated for 14 days to induce senescence before treatment with A1.1.
(§1) Cytotoxicity of A1.1 analogs against bleomycin-induced senescent human NDFs and rat dermal fibroblasts (RDFs). Activity of analogs was assessed from dose-response curves against irradiation- or bleomycin-induced senescent and proliferating cells to calculate IC50s (uM). The fold difference of proliferating versus senescent cell IC50s was used to assess the level of specific anti-senescent activity of the compounds.
(§2) For generation senescent human neonatal dermal fibroblasts (NDFs) and adult rat dermal fibroblasts (RDFs), cells are treated at ˜10 ug/ml bleomycin for 3 days (for bleomycin-induced senescence) or irradiated once at 20 Gy using a gamma irradiator (Cs source), followed by at least 7 day recovery in fresh medium for induction of senescence. Senescent and non-senescent (proliferating) cells for each cell line are plated into 384-w plate, followed by 72 hour exposure to a dose titration of compounds. Viability measurements are estimated using the resazurin viability assay. Using GraphPad Prism 5, the IC50 values are calculated from the non-linear regression of log-transformed compound concentrations versus dose-response normalized to background and non-treated controls.

[3] = system: adult rat dermal fibroblasts (RDF); test: Resazurin viability assay, senescent vs proliferating rat dermal fibroblasts; type: cell-based; conditions: Rattus norvegicus, Fibroblast, 72 hour exposure, resazurin
Procedure: as §1, §2

[4] = system: B16 melanoma lung metastasis in C57BL/6 mice; test: Senescence-enhanced B16 lung metastasis model; type: in vivo, mouse; conditions: 20 mg/kg intraperitoneally once a day for 5 consecutive days; irradiated (11 Gy) C57BL/6 mice
Source text: FIG. 4. Efficacy of A1.1 analogs in the senescence-enhanced B16 metastasis model. (A) Quantification of metastatic nodules by H&E morphometric analysis, and the resulting reduction in tumor burden (%) compared to vehicle control. (B) Quantitation morphometric analysis of lungs excised from irradiated mice treated with analogs of A1.1 post-inoculation of B16 cell intravenously, along with quantitation of morphometric analysis, are provided. (C) In vitro testing of A1.1 and analogs against the growth and viability of B16 cells, as assessed by the resazurin viability assay after 72 hour exposure to compounds compared to non-treated controls.
The role of senescent cells in the promotion of metastatic potential of cancer cells has also been described [Patent WO 2013090645 A1; Campisi, J. (2015). Cancer and Aging: Rival Demons]. […] To test the efficacy of A1.1, irradiated (11 Gy followed by bone-marrow transplantation) and non-irradiated C57BL/6 mice received B16 melanoma cells via tail vein injection were subsequently (72 hours later) administered A1.1 (20 mg/kg) intraperitoneally once a day for 5 consecutive days.
Synthesized analogs were also tested in vivo, to assess whether optimized structures are capable of showing activity against senescence-mediated B16 lung metastasis in irradiated mice (FIG. 4B). Analogs A1.1, A1.12, A1.13, A1.14, A1.15, and A1.6 were administered at 20 mg/kg intraperitoneally for 5 consecutive days. In addition to A1.1, treatment with analogs A1.12, A1.14 and A1.15 at 20 mg/kg reduced the metastatic burden in the lungs of irradiated mice by more than 2-fold.

| SMILES | proliferating cells / overall cell mass (methylene blue staining) [1] | senescent cells (number of SA-β-Gal-positive cells) ([1]; dnPTEN-induced senescence) | IC50 ([2]; proliferating NDF, read-out: IC50 NDFprolif) | IC50 ([2]; senescent NDF, bleomycin-induced, read-out: IC50 NDFsen.bleo) | IC50 ([3]; proliferating RDF, read-out: IC50 RDFprolif) | IC50 ([3]; senescent RDF, bleomycin-induced, read-out: IC50 RDFsen.bleo) | reduction of B16 metastatic load in the lungs of irradiated mice vs vehicle [4] |
| --- | --- | --- | --- | --- | --- | --- | --- |
| CCNC(=O)c1sc(SCc2ccccc2)c2c1CC(c1ccc(OC)cc1)C/C2=N\O (stereo not shown) [Example A1.12] | little effect against proliferating cells | selective elimination of senescent cells | < 10 µM | < 5 µM | < 10 µM | < 5 µM |  |
| COc1ccc(C2C/C(=N\O)c3c(SCc4ccccc4)sc(C(=O)N4CCOCC4)c3C2)cc1 (stereo not shown) [Example A1.13, (3-(Benzylthio)-4-(hydroxyimino)-6-(4-methoxyphenyl)-4,5,6,7tetrahydrobenzo[c]thiophen-1-yl)(morpholino)methanone] |  |  |  |  |  |  | did not show a substantial decrease |
